Assay results from PubChem BioAssay (NCI).
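Cells were grown in 96-well plates and exposed to each compound for 48 hours at five concentrations; endpoints were interpolated linearly between bracketing concentrations, or set to the highest concentration if not reached. TGI denotes the concentration required for complete inhibition of growth.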

Experiments:
Assay in all cases: NCI tumour cell line growth inhibition, 48 h
[1] = tested on: SNB-19 CNS
[2] = tested on: SK-MEL-5 melanoma
[3] = tested on: TK-10 renal
[4] = tested on: HCT-15 colon
[5] = tested on: HL-60(TB) leukemia
[6] = tested on: MCF7 breast
[7] = tested on: CCRF-CEM leukemia
[8] = tested on: KM12 colon
[9] = tested on: BT-549 breast

SMILES	TGI [1] [µM]	TGI [2] [µM]	TGI [3] [µM]	TGI [4] [µM]	TGI [5] [µM]	TGI [6] [µM]	TGI [7] [µM]	TGI [8] [µM]	TGI [9] [µM]
C=CCOC(=O)N1c2ccc(O)cc2[C@@]23O[C@@]24[C@@H]1C#C/C=C\C#C[C@]3(O)C(OC)(OC)C[C@@H]4C	> 100	27.4	> 100	> 100	72	98.2	76.8	69.7	–
COC(=O)c1ccccc1/C=C1\Cc2ccc3c(c2C1=O)CCCC3	> 100	–	> 100	> 100	–	> 100	> 100	> 100	> 100
C=CCOC(OCC=C)/C(Br)=C/C	> 100	> 100	> 100	89.3	> 100	> 100	> 100	> 100	–
CCOC(=O)[C@@]1(C)CC(O)C(=O)N1C (stereo not given in full)	> 100	> 100	> 100	> 100	> 100	> 100	> 100	> 100	> 100
O=C(OC1CN2CCC1CC2)N(c1ccccc1)c1ccccc1 (stereo not given)	> 100	> 100	> 100	> 100	> 100	> 100	> 100	–	> 100
CCCCc1ccc(Nc2nc(Cl)c3c(ncn3C3CC(Oc4ccc(C)cc4)C(COc4ccc(C)cc4)O3)n2)cc1 (stereo not given)	> 100	> 100	> 100	> 100	> 100	> 100	> 100	> 100	> 100
S=c1nc(N/N=C/c2cccs2)c2cn[nH]c2[nH]1	> 100	> 100	49.3	64.1	> 100	28.3	–	39.1	> 100
CC(=O)O[C@H]1C[C@@H](OC(C)=O)[C@@](C)(O)[C@@H]2[C@@H](OC(C)=O)[C@@]3(O)[C@H](/C=C(/CO)[C@H]4O[C@H]4[C@@H](OC(C)=O)[C@@]12C)OC(=O)[C@@H]3C	> 25	> 25	> 25	> 25	–	–	> 25	> 25	> 25
CCN(CC)CC1CN=C(N)O1 (stereo not given)	> 100	> 100	–	> 100	–	> 100	> 100	> 100	> 100
Cc1cc(S(=O)(=O)Nc2nncn2-c2ccc(Cl)cc2)c(S)cc1Cl	> 10	> 10	> 10	> 10	> 10	> 10	> 10	> 10	> 10
O=C(CN1CCCCC1)Nc1ccc2c(c1)C1Oc3ccccc3CC1CO2 (stereo not given)	–	26.7	50.9	35.1	> 100	44.1	> 100	49.9	44.6
Cc1ccc(S(=O)(=O)N/N=C2\CC3CC4CCC2C4C3)cc1 (stereo not given)	–	> 100	> 100	> 100	> 100	> 100	> 100	> 100	> 100
O=C(N/N=C\c1cccc2ccccc12)Nc1cccc2ccccc12	48.9	> 100	56.5	> 100	60.8	> 100	> 100	> 100	> 100
O=C(c1cccs1)N1CCCN(C(=O)c2cccs2)C1=S	> 100	> 100	> 100	> 100	> 100	> 100	> 100	> 100	> 100
COC(=O)CNC(=O)CCC(C)[C@H]1CCC2C3C(C[C@H](OC(C)=O)[C@@]21C)[C@@]1(C)CCC2(C[C@H]1C[C@H]3OC(C)=O)OOC1(CC[C@]3(C)C4C[C@H](OC(C)=O)[C@@]5(C)C(CC[C@@H]5C(C)CCC(=O)NCC(=O)OC)C4[C@H](OC(C)=O)C[C@@H]3C1)OO2 (stereo not given in full)	> 50	–	2.55	5.42	2.37	> 50	1.57	41.2	> 50
COC(=O)C1CCC(=O)N1C(c1cc(OC)c(OC)c(OC)c1)c1cccc2ccccc12 (stereo not given)	> 100	–	> 100	> 100	> 100	> 100	–	> 100	–
Cc1cc(Nc2ccc(NS(C)(=O)=O)cc2)c2c(ccc3nccc32)[nH]1	48.8	29.1	> 100	> 100	–	36.2	> 100	36.2	43.9
CCOC(=O)C(=CNC(=S)N=Nc1c(O)[nH]c2ccccc12)C(=O)OCC	> 100	> 100	> 100	–	> 100	> 100	> 100	> 100	–
CCCCSC1=N/C(=C\c2ccc(N(C)C)cc2)C(=O)N1	> 100	> 100	> 100	> 100	> 100	> 100	> 100	> 100	> 100
CCCCCCCCP(=O)(O)OP(=O)(O)OCC1OC(n2ccc(N)nc2=O)C(O)C1O (stereo not given)	> 100	> 100	> 100	> 100	> 100	> 100	> 100	> 100	> 100
CC1SC2(CCCCC2)N(NC(=O)CSc2nc3ccc(Cl)cc3c(=O)n2-c2ccccc2)C1=O (stereo not given)	66.9	27.9	> 100	45.2	51	32.2	> 100	> 100	36.4
Cc1ccc(-c2cc[n+]3c(n2)oc2ccccc23)cc1	> 100	–	–	> 100	44.2	> 100	36.3	> 100	76.6
CN(C)CCOc1ccc(-c2c(Oc3ccccc3)c(=O)oc3ccccc23)cc1	20.8	13.1	26.4	22.6	–	17.5	4.94	77.8	26.6
